The nature of series [1]: Dissociation constants of complexes with γ-CD by FTIR spectroscopy (Hill fit). The series is classed as physicochemical. As to conditions: complex formed in molar excess of X approximately 1.2–1.4, PBS. The text has this:
(§1) FTIR spectroscopy provides valuable data on the interaction of molecules, including those applicable to characterize the non-covalent complexes of apiol-PPh3 (and analogues) with cyclodextrins and heparin. In the FTIR spectra of apiol-PPh3 and analogues (Figure 3a), one characteristic is the bands of valence oscillations of the bonds C=C of the aromatic system (1450–1650 cm^−1) overlapping with the bands of deformation oscillations C-H (1400–1500 cm^−1). The intensity of these peaks increases with the formation of non-covalent complexes of apiol-PPh3 and its analogues with cyclodextrins and heparin due to the transition of the solid phase into solution. Linear fitting of the intensity of peaks in the FTIR spectra on the cyclodextrin or heparin concentration (Section 2.3) in Hill coordinates allows determining the dissociation constants of the complexes (Table 2). The interactions of triphenylphosphine derivatives of allylbenzenes with γ-CD is rather weak (Kd 10 mM values). In the case of M-β-CD, the dissociation constants reach millimolar values, which is sufficient to obtain soluble forms of adjuvants (Table 2). Thus, the β-cyclodextrin derivatives are more suitable in terms of size for inclusion of the adjuvants studied. […] Comparing the values of the dissociation constants of alkylbenzenes and PPh3-derivatives complexes with cyclodextrins, we observed that these Kd values are close, which means that it is the allylbenzene-fragment (of apiol-PPh3) that plunges into the cyclodextrin cavity, and the triphenylphosphine radical looks outward (Figure 3b), which would provide the implementation of mitochondrial targeting of the developed formulations.
(§2) Non-covalent complexes of apiol, apiol-PPh3 and analogues with cyclodextrins (with different molar ratios) and heparin (15 kDa, 1:1 w/w) were obtained by adding solutions of cyclodextrins (100 mg/mL) or heparin (20 mg/mL) in PBS to apiol or apiol-PPh3 (or analogues) samples (2–3 mg). The excess of CDs or heparin was varied from 0.04 to 10 mol/mol. Then, mixtures were incubated for 1 h at 40 °C. Cyclodextrin or heparin are necessary for the solubilization of extremely poorly soluble compounds.
(§3) The ATR-FTIR spectra of samples (Section 3.3) were acquired using a Bruker Tensor 27 spectrometer equipped with a liquid N2 cooled MCT (mercury cadmium telluride) detector. Samples were placed in a thermostatic cell BioATR-II with ZnSe ATR element (Bruker, Germany). FTIR spectra were recorded from 850 to 4000 cm^−1 with 1 cm^−1 spectral resolution; 50 scans were accumulated and averaged. Spectral data were processed using the Bruker software system Opus 8.2.28 (Bruker, Germany). The spectrum of cyclodextrin or heparin in the corresponding concentration was subtracted from the spectra of the complexes. […]

A short description of series [2]: Dissociation constants of complexes with heparin by FTIR spectroscopy (Hill fit). The series is classed as physicochemical. As to conditions: calculated per one unit of heparin C12H19NO20S3, PBS.
Source text: as §1, §2, §3

The subject of another series is A549 cells. The series can be described thus: MTT assay, synergy of adjuvants with paclitaxel against A549. It counts as cell-based, human. As to conditions: X − M-β-CD, SC = CV(paclitaxel) × CV(adjuvant)/CV(combo). An excerpt:
Apparently PPh3 derivatives effectively penetrate into cancer cells along a potential gradient, inhibit efflux proteins and mitochondrial enzymes, causing the apoptosis of cancer cells, with IC50 values being lower by two orders of magnitude than the corresponding allylbenzene (Table 3). […] For allylbenzenes, a synergy close to additivity (the cytostatic effect of adjuvant + paclitaxel is almost equal to the sum of their individual contributions) was observed; for PPh3 derivatives, a pronounced increase in the action of paclitaxel is characteristic (the cytostatic effect of adjuvant + paclitaxel is much higher (>) than the sum of their individual contributions). For apiol-PPh3, the most pronounced effect of increasing the activity of paclitaxel was observed (Figure 4b).
Figure 4 Viability of A549 cells in the presence of paclitaxel and allylbenzenes’ PPh3 derivatives in the form of complexes with M-β-CD (1:5 mol/mol). MTT assay. (a) Dose–effect graphs. (b) MTT assay results for 100 nM paclitaxel alone and combined with allylbenzenes’ PPh3 derivatives in the form of complexes with M-β-CD (1:5 mol/mol).
The cytotoxic activity of paclitaxel, Apiol-PPh3 and analogues was determined using an MTT test. Paclitaxel-adjuvant synergism coefficients (SC) were calculated as CV (paclitaxel) × CV (alone adjuvant)/CV (combo paclitaxel + adjuvant), where CV represents the cell viability. The synergy coefficient can be interpreted as strong synergy (SC > 2), synergy (2 > SC > 1.2), indifference/additivity (1.2 > SC > 0.8), antagonism (0.8 > SC > 0.5), and inhibition (SC < 0.5), as described earlier.
A general note: Formazan colour is commonly taken as a measure of viable cells.

A further series relates to sea urchin embryos. The experiment in a line: Phenotypic sea urchin embryo assay. As to conditions: X in M-β-CD. It counts as in vivo. The text has this:
Hemolytic activity and thrombogenicity are the primary parameters for evaluating the safety of medical formulations. The phenotypic sea urchin embryo assay developed by colleagues is a visual way to study the toxicity of formulations in vivo. The sea urchin and human genomes contain more than 7000 common genes, including orthologs associated with a number of human diseases. Therefore, sea urchins can be considered as a reliable and versatile model organism for studying the safety of new and existing cytotoxic formulations in vivo. Table 5 presents data on the % of erythrocyte hemolysis, the degree of whole blood thrombosis of apiol-PPh3 and analogues, and data of phenotypic sea urchin embryo assay. Thus, the non-toxicity of PPh3 derivatives of allylbenzenes for normal non-cancer cells, as well as the selectivity of action against cancer cells, is shown. The selectivity of cytotoxic action against cancer cells in comparison with normal cells can be explained by the fact that the PPh3- cation provides selective accumulation and reduction in the mitochondrial membrane potential of the transformed cancer cells. Cyclodextrin (M-β-CD) and heparin are non-toxic (and approved by the FDA for intravenous application).
Adult sea urchins, Paracentrotus lividus L. (Echinidae), were collected from the Mediterranean Sea on the Cyprus coast and kept in an aerated seawater tank and were used to study the cleavage alteration of Apiol-PPh3 and analogues. Experiments with sea urchin embryos comply with the requirements of biological ethics.

Marks after values point to notes of the source that are not given here.

As to `COc1cc(CCC[P+](c2ccccc2)(c2ccccc2)c2ccccc2)c(OC)c(OC)c1OC` [Allyltetramethoxybenzene-PPh3], the “−lg Kd (X − γ-CD)” value in series [1] came to 2.1 ± 0.2. For the same compound, in series [2], the “−lg Kd (X − Heparin)” value is reported as 3.2 ± 0.1. The “Synergy Coefficients of Adjuvants and PPh3–Adjuvants with Paclitaxel” value (“Synergy Coefficients” for short) with A549 cells is listed as 1.3 ± 0.1. For the same compound, the “Concentration Causing Changes in Sea Urchin Embryos” value (“Concentration Causing Changes” below) with sea urchin embryos is >4 *** μM.

Consider `COc1cc(CCC[P+](c2ccccc2)(c2ccccc2)c2ccccc2)c(OC)c2c1OCO2` [Apiol-PPh3], for which, in series [1], the “−lg Kd (X − γ-CD)” value turned out to be 1.2 ± 0.2. Moreover, the “−lg Kd (X − Heparin)” value in series [2] is 2.7 ± 0.2. In addition, the “Synergy Coefficients” value in the series with A549 cells is 2.2 ± 0.2. Also, the “Concentration Causing Changes” value in the series with sea urchin embryos was >4 *** μM.

As to `COc1c(CCC[P+](c2ccccc2)(c2ccccc2)c2ccccc2)cc2c(c1OC)OCO2` [Dillapiol-PPh3], the “−lg Kd (X − γ-CD)” value in series [1] amounted to 1.4 ± 0.3. Moreover, the “−lg Kd (X − Heparin)” value in series [2] is 3.0 ± 0.3. For the same compound, the “Synergy Coefficients” value in the series on A549 cells is given as 1.5 ± 0.1. Further, the “Concentration Causing Changes” value in the series with sea urchin embryos is listed as >4 *** μM.

With `COc1cc(CCC[P+](c2ccccc2)(c2ccccc2)c2ccccc2)cc2c1OCO2` [Myristicin-PPh3], the “−lg Kd (X − γ-CD)” value in series [1] is 1.3 ± 0.1. Further, in series [2], the “−lg Kd (X − Heparin)” value is recorded as 2.6 ± 0.2. Also, in the series with A549 cells, the “Synergy Coefficients” value came to 1.8 ± 0.3. For the same compound, the “Concentration Causing Changes” value with sea urchin embryos is listed as >4 *** μM.

(Values after paper PMC10747112, “Triphenylphosphine Derivatives of Allylbenzenes Express Antitumor and Adjuvant Activity When Solubilized with Cyclodextrin-Based Formulations” (Pharmaceuticals, 2023).)
